Measured values published in patent US20080292619A1, “Pharmaceutical Composition Containing Meltrin Antagonist” (MOCHIDA PHARMACEUTICAL CO., LTD., priority 2004, published 2008).
In the oligonucleotide strings, read from the 5' end, every base follows the letter of its sugar. An asterisk marks phosphorothioate; unmarked linkages are phosphodiester. Other units and linkages are bracketed, terminal groups are in braces. A string of capitals states the bases alone. d = 2'-deoxy (DNA)

Tested on: human meltrin α RNA
Assay: Suppression of human meltrin α expression by antisense compound in RD cell (real time PCR)
Assay type: cell-based
Conditions: RD cell, corrected by GAPDH
Description: First, RD cell (ATCC) was suspended in DMEM containing 10% fetal bovine serum (FBS, SIGMA), and the suspension was inoculated in 6 well culture plate at 2.5×10^5 cells/well/2 mL. After incubating overnight at 37° C. in the presence of 5% CO2, the cells were washed twice with serum-free DMEM, and Opti-MEM medium (GIBCO) was added at 800 μL/well.
Gene transfection reagent Lipofectin (Invitrogen) was diluted with Opti-MEM to 20 μg/mL, and the dilution was allowed to stand at room temperature for 30 minutes. Next, the antisense oligodeoxynucleotide synthesized as described above was heated at 90° C. for 3 minutes, and after quenching on ice, diluted with Opti-MEM to a concentration 10 times higher than the final concentration. Equal amounts of the Lipofectin in Opti-MEM and the antisense oligo DNA in Opti-MEM were mixed, and the mixture was incubated at room temperature for 15 minutes and added to 6 well plate at 200 μL/well.
The culture was incubated at 37° C. for 4 hours in the presence of 5% CO2, and the culture supernatant containing the Lipofectin was removed. The cells were washed twice with serum-free DMEM, and after adding 1 mL/well of Opti-MEM and incubating for 18 hours at 37° C. in the presence of 5% CO2, the cells were subjected to the measurement of the level of expression of meltrin α RNA.
After the washing, RNA was isolated from the cell by using RNA isolation kit (RNeasy Micro Kit, QIAGEN) according to the protocol of the kit, and RNA concentration was determined by measuring absorbance at a wavelength of 260 nm with a spectrophotometer (Nano prop, LMS Co., Ltd.) (1OD=40 μg/mL). After the quantitation, the RNA was prepared to a concentration of 0.1 μg/μL by using DEPC-treated water.
0.35 μg of the isolated RNA, and 3.5 μL of 10× TaqMan buffer, 7.7 μL of 25 mM MgCl2, 7.0 μL of 2.5 mM each dNTP Mix, 1.75 μL of 50 μM Random Hexamers, 0.7 μL of 20 U/μL RNase inhibitor, and 0.9 μL of 50 U/μL MultiScribe Reverse Transcriptase (all purchased from Applied Biosystems) were mixed, and water was added to make up the total volume to 35 μL. This solution was maintained at 25° C. for 10 minutes, at 48° C. for 30 minutes, and at 95° C. for 5 minutes, and reverse transcription was conducted to synthesize cDNA.
A solution in total volume of 20 μL containing 10 μL of TaqMan Universal PCR Master Mix, 0.4 μL of 10 μM TaqMan MGB Probe (sequence 5′FAM-caccgaaggacaatccca-MGB-3′: Applied Biosystems), 0.1 μL of 50 μM Forward primer (sequence ggaagccgccagattcct) for detecting meltrin α, 0.1 μL of 50 μM Reverse primer (sequence […]) for detecting meltrin α (all purchased from Sigma-Genosys), 5 μL of the cDNA solution of (3), and 4.4 μL of water was prepared, and after maintaining the solution at 50° C. for 2 minutes and at 95° C. for 10 minutes, PCR was conducted by repeating 40 cycles of 95° C. for 15 seconds and 60° C. for 1 minute in ABI Prism 7000.
The amount of the human meltrin α RNA was measured by conducting real time PCR by using the plasmid containing the cDNA coding for the human meltrin α for the template to generate the standard curve, and calculating RNA copy number of the meltrin α in each sample. The level of expression of GAPDH was also determined by using a primer and probe set for real time PCR of human GAPDH (Pre-Developed TaqMan Assay Reagents Human GAPDH (20×) (Cat# 4310884E, Applied Biosystems).
The results of the real time PCR of the meltrin α was corrected by the level of expression of the GAPDH to calculate the suppression rate. […]

Substance | suppression rate of expression, 200 nM | suppression rate of expression, 50 nM
H036: acacgtgctgagactgactg (ACACGTGCTGAGACTGACTG; antisense; DNA, all phosphorothioate, methylation of C not given here) | ++ (“++” when the suppression rate was at least 50%) | –
H197: tgctcagctccaagcagtat (dT*dG*dC*dT*dC*dA*dG*dC*dT*dC*dC*dA*dA*dG*dC*dA*dG*dT*dA*dT; antisense) | ++ (“++” when the suppression rate was at least 50%) | –
H169: catcctgtccagaatcccat (dC*dA*dT*dC*dC*dT*dG*dT*dC*dC*dA*dG*dA*dA*dT*dC*dC*dC*dA*dT; antisense) | ++ (“++” when the suppression rate was at least 50%) | –
H011: gcgaccggagggatttcctg (GCGACCGGAGGGATTTCCTG; antisense; DNA, all phosphorothioate, methylation of C not given here) | ++ (“++” when the suppression rate was at least 50%) | + (“+” when the suppression rate was at least 30%)
H130 + 15: tggccgaggtgagcctgaca (TGGCCGAGGTGAGCCTGACA; antisense; DNA, all phosphorothioate, methylation of C not given here) | – | ++ (“++” when the suppression rate was at least 50%)
H034: acatgtccatggtagtaaca (ACATGTCCATGGTAGTAACA; antisense; DNA, all phosphorothioate, methylation of C not given here) | ++ (“++” when the suppression rate was at least 50%) | –
H225: aagacagaggcatcatggca (dA*dA*dG*dA*dC*dA*dG*dA*dG*dG*dC*dA*dT*dC*dA*dT*dG*dG*dC*dA; antisense) | +++ (“+++” when the suppression rate was at least 70%) | –
H149 + 10: tattgtggagcaggtctgag (dT*dA*dT*dT*dG*dT*dG*dG*dA*dG*dC*dA*dG*dG*dT*dC*dT*dG*dA*dG; antisense) | – | + (“+” when the suppression rate was at least 30%)
H004: ctggcacaagccagccttga (CTGGCACAAGCCAGCCTTGA; antisense; DNA, all phosphorothioate, methylation of C not given here) | +++ (“+++” when the suppression rate was at least 70%) | + (“+” when the suppression rate was at least 30%)
H152: cttctcacttaatataggcg (dC*dT*dT*dC*dT*dC*dA*dC*dT*dT*dA*dA*dT*dA*dT*dA*dG*dG*dC*dG; antisense) | + (“+” when the suppression rate was at least 30%) | –
H148 + 5: ccaggcggagcccagtctcc (dC*dC*dA*dG*dG*dC*dG*dG*dA*dG*dC*dC*dC*dA*dG*dT*dC*dT*dC*dC; antisense) | – | + (“+” when the suppression rate was at least 30%)
H068: gctcatgtgccagggtcacg (dG*dC*dT*dC*dA*dT*dG*dT*dG*dC*dC*dA*dG*dG*dG*dT*dC*dA*dC*dG; antisense) | + (“+” when the suppression rate was at least 30%) | –
H235: ttgcctagatacagtgggga (DNA dT*dT*dG*dC*dC*dT*dA*dG*dA*dT*dA*dC*dA*dG*dT*dG*dG*dG*dG*dA; antisense) | ++ (“++” when the suppression rate was at least 50%) | –
H217: ggaagttgataagcaagttg (dG*dG*dA*dA*dG*dT*dT*dG*dA*dT*dA*dA*dG*dC*dA*dA*dG*dT*dT*dG; antisense) | +++ (“+++” when the suppression rate was at least 70%) | –
H159: actgacggcagtagctcaaa (dA*dC*dT*dG*dA*dC*dG*dG*dC*dA*dG*dT*dA*dG*dC*dT*dC*dA*dA*dA; antisense) | ++ (“++” when the suppression rate was at least 50%) | –
H196: agggaggtggcggtttgcag (dA*dG*dG*dG*dA*dG*dG*dT*dG*dG*dC*dG*dG*dT*dT*dT*dG*dC*dA*dG; antisense) | +++ (“+++” when the suppression rate was at least 70%) | + (“+” when the suppression rate was at least 30%)
H250: atctaaggatttgggcatct (DNA dA*dT*dC*dT*dA*dA*dG*dG*dA*dT*dT*dT*dG*dG*dG*dC*dA*dT*dC*dT; antisense) | + (“+” when the suppression rate was at least 30%) | –
H082: tcctctggctccccacagtc (dT*dC*dC*dT*dC*dT*dG*dG*dC*dT*dC*dC*dC*dC*dA*dC*dA*dG*dT*dC; antisense) | + (“+” when the suppression rate was at least 30%) | –
H030: gtgggtttccgtgaaactgc (GTGGGTTTCCGTGAAACTGC; antisense; DNA, all phosphorothioate, methylation of C not given here) | + (“+” when the suppression rate was at least 30%) | –
H239: ttggaatgtattagagctgg (DNA dT*dT*dG*dG*dA*dA*dT*dG*dT*dA*dT*dT*dA*dG*dA*dG*dC*dT*dG*dG; antisense) | + (“+” when the suppression rate was at least 30%) | –
H139 + 18: acgctaggtgcacgtggggc (ACGCTAGGTGCACGTGGGGC; antisense; DNA, all phosphorothioate, methylation of C not given here) | – | ++ (“++” when the suppression rate was at least 50%)
H099: aggatcacctgcagaattga (dA*dG*dG*dA*dT*dC*dA*dC*dC*dT*dG*dC*dA*dG*dA*dA*dT*dT*dG*dA; antisense) | + (“+” when the suppression rate was at least 30%) | –
H129: gggtggccgggaagggcgca (GGGTGGCCGGGAAGGGCGCA; antisense; DNA, all phosphorothioate, methylation of C not given here) | ++ (“++” when the suppression rate was at least 50%) | –
H055: tccacgcctaccaacacgat (dT*dC*dC*dA*dC*dG*dC*dC*dT*dA*dC*dC*dA*dA*dC*dA*dC*dG*dA*dT; antisense) | ++ (“++” when the suppression rate was at least 50%) | –
H139 + 17: cgctaggtgcacgtggggcc (CGCTAGGTGCACGTGGGGCC; antisense; DNA, all phosphorothioate, methylation of C not given here) | – | + (“+” when the suppression rate was at least 30%)
H130 + 10: gaggtgagcctgacagggtt (GAGGTGAGCCTGACAGGGTT; antisense; DNA, all phosphorothioate, methylation of C not given here) | – | + (“+” when the suppression rate was at least 30%)
H233: agttttgttttctggaaggc (DNA dA*dG*dT*dT*dT*dT*dG*dT*dT*dT*dT*dC*dT*dG*dG*dA*dA*dG*dG*dC; antisense) | + (“+” when the suppression rate was at least 30%) | –
H144 + 5: gcaggcagaggcttctgagg (GCAGGCAGAGGCTTCTGAGG; antisense; DNA, all phosphorothioate, methylation of C not given here) | – | ++ (“++” when the suppression rate was at least 50%)
